Laboratory results published in patent US8452543B2, “High throughput screening for antimicrobial dosing regimens” (priority 2005, dated 2013).
“And” between values parts separate entries of the source, which are not always exact repeats. Equal entries are not always repeated.

Experiments:
[1] = test system: P. aeruginosa ATCC 27853; assay: MIC/MBC, modified macrobroth dilution; assay type: cell-based, Pseudomonas aeruginosa; conditions: P. aeruginosa isolate (PA 27853)
Experimental: The final concentration of bacteria in each macrobroth dilution tube was approximately 5×10^5 cfu/ml of Ca-MHB. Serial twofold dilutions of meropenem were used. […] Samples (50 μl) from clear tubes and the cloudy tube with the highest drug concentration were plated on Mueller-Hinton agar (MHA) plates (Hardy Diagnostics, Santa Maria, Calif.). […] Drug carry-over effect was assessed by visual inspection of the distribution of colonies on media plates. The studies were conducted in duplicate and repeated at least once on a separate day.

[2] = test system: S. aureus ATCC 29213 and clinical isolates 55, 60, 25, 62; assay: MIC/MBC of S. aureus isolates to gentamicin; assay type: cell-based, Staphylococcus aureus
Experimental: Minimum inhibitory concentration (MIC)/minimum bactericidal concentration (MBC) were determined in Ca-MHB using a modified macrobroth dilution method as described by the CLSI (10). The final concentration of bacteria in each macrobroth dilution tube was approximately 5×10^5 cfu/ml of Ca-MHB. […] Samples (50 μl) from clear tubes and the cloudy tube with the highest drug concentration were plated on Mueller-Hinton agar (MHA) plates (Hardy Diagnostics, Santa Maria, Calif.). […] Drug carry-over effect was assessed by visual inspection of the distribution of colonies on media plates. The studies were conducted in duplicate and repeated at least once on a separate day. […]

[3] = test system: S. aureus ATCC 29213 and clinical isolates 55, 60, 25, 62; assay: Time-kill studies and pharmacodynamic modeling, gentamicin; assay type: cell-based, Staphylococcus aureus
Experimental: Time-kill studies were conducted with different and escalating meropenem concentrations. […] An overnight culture of the isolate was diluted 30-fold with pre-warmed Ca-MHB and incubated further at 35 8 C until reaching late log phase growth. The bacterial suspension was diluted with Ca-MHB accordingly based on absorbance at 630 nm; 15 mL of the suspension was transferred to 50 mL sterile conical flasks each containing 1 mL of an antimicrobial agent solution at 16 the target concentration. The final concentration of the bacterial suspension in each flask was 1×10^8 cfu/mL. The high inoculum used was to simulate the bacterial load in severe infection, and to allow resistant sub-population(s) to be present at baseline. The experiment was conducted for 24 h in a shaker water bath set at 35 8 C. Serial samples in duplicate were obtained from each flask over 24 h, at 0 (baseline), 2, 4, 8, 12, and 24 h, to characterize the effect of various meropenem concentrations on the total bacterial population. Prior to culturing the bacteria quantitatively, the bacterial samples (0.5 mL) were centrifuged at 10000 g for 15 min, and reconstituted with sterile normal saline to their original volumes in order to minimize drug carry-over effect. Total bacterial populations were quantified by spiral plating 10 serial dilutions of the samples ([…]) onto MHA plates. The media plates were incubated in a humidified incubator (35 8 C) for 18-24 h, and the bacterial density from each sample was determined by CASBA-4 colony scanner/software (Spiral Biotech, Bethesda, Md., USA).
In contrast to the conventional approach in which the final observed effects are modelled, information over time was utilized to develop a dynamic model system that would capture bacterial growth/killing rates. The starting point was a mathematical model describing the time course of bacterial burden [biological response, N(t)] under the influence of various antimicrobial agent concentrations C(t). The rate of change of bacteria over time was expressed as the difference between the intrinsic bacterial growth rate and the kill rate provided by the antimicrobial agent (Eq. 35). Based on previous studies, a linear bacterial growth rate was adopted. Additional model parameters were used to account for other physiological phenomena such as contact inhibition (using a maximum population size) and non-linear (sigmoidal) kill rate to account for target site saturation. Regrowth was attributed to adaptation, which was explicitly modelled as increase in the concentration necessary to achieve 50% maximal kill rate (C50k), using a saturable function of antimicrobial agent selective pressure (both meropenem concentration and time) (Eq. 36).
Time-kill modeling was performed for S. Aureus and gentamicin as for P. aeruginosa according to procedures and dynamic growth modeling in Examples 2-3.

[4] = test system: S. aureus ATCC 29213; assay: Hollow-fiber infection model, gentamicin; assay type: cell-based, Staphylococcus aureus
Experimental: The computer simulations were compared to experimental data from an in-vitro hollow fiber infection model with similar antimicrobial agent exposures (20). Basically the drug was injected directly into the central reservoir to achieve the peak concentration desired. Fresh (drug-free) growth medium (Ca-MHB) was continuously infused from the diluent reservoir into the central reservoir to dilute the drug in order to simulate drug elimination in humans. […] Bacteria were inoculated into the extracapillary compartment of the hollow-fiber cartridge (Fibercell Systems, Inc., Frederick, Md.); they are confined in the extracapillary compartment, but are exposed to the fluctuating drug concentration in the central reservoir by means of an internal circulatory pump in the bioreactor loop. The optional absorption compartment of the system was not used.

[5] = test system: P. aeruginosa ATCC 27853; assay: Time-kill studies and best-fit model, gentamicin; assay type: cell-based, Pseudomonas aeruginosa; conditions: PA 27853
Experimental: A clinical relevant concentration range of gentamicin (from 0-32 mg/l) was used. […] The data were used as inputs to derive the best-fit model parameter estimates, as previously described (24, 17). The baseline inoculum (10^7 CFU/ml) was deemed to be dense enough to constitute a heterogeneous bacterial population. […] In Table 5: PA—P. aeruginosa, AB—A. baumannii, Kg—growth rate constant for bacterial population, Nmax—maximum population size, Kk—maximal kill rate constant for bacterial population, C50k—concentration to achieve 50% of maximal kill rate for bacterial population, H—sigmoidicity constant for bacterial population, β—maximal adaptation, and τ—rate of adaptation factor.

[6] = test system: P. aeruginosa ATCC 27853; assay: Hollow fiber infection model, gentamicin; assay type: cell-based, Pseudomonas aeruginosa; conditions: Cmax/MIC of 30 every 12 h
Experimental: The media plates were incubated at 35° C. for up to 24 (total population) and 72 hours (sub-populations with reduced susceptibility), then bacterial density from each sample was enumerated visually. The theoretical lower limit of detection was 400 CFU/ml.

[7] = test system: amikacin resistant A. baumannii isolates; assay: Resistance confirmation, repeat susceptibility testing, amikacin; assay type: cell-based, Acinetobacter baumannii; conditions: amikacin resistant isolates
[8] = test system: gentamicin resistant P. aeruginosa isolates; conditions: after serial passage on drug-free plates and storage at −70° C.

For gentamicin, the MBC [1] was 2 mg/l and 2/2 mg/l, the MIC [1] was 2 mg/l and 2/2 mg/l and the MBC ([2]; S. aureus strain 25) was 2 μ/mL. The MIC ([2]; S. aureus strain 25) was 1 μ/mL, the MBC ([2]; S. aureus strain 55) was 2 μ/mL and the MIC ([2]; S. aureus strain 55) was 0.5 μ/mL. For the same substance, the MBC ([2]; S. aureus strain 60) was 2 μ/mL, the MIC ([2]; S. aureus strain 60) was 1 μ/mL and the MBC ([2]; S. aureus strain 62) was 1/1 μ/mL. The MIC ([2]; S. aureus strain 62) was 1/1 μ/mL, the MBC ([2]; S. aureus strain ATCC 29213) was 2 μ/mL and the MIC ([2]; S. aureus strain ATCC 29213) was 1 μ/mL. The C50K ([3]; S. aureus strain 25) was 3.18 mg/L, the H ([3]; S. aureus strain 25) was 1.27 and the β ([3]; S. aureus strain 25) was 9,952. It also gave a τ ([3]; S. aureus strain 25) of 0.00002 L/mg/h, a C50K ([3]; S. aureus strain 55) of 2.58 mg/L and an H ([3]; S. aureus strain 55) of 1.07. The β ([3]; S. aureus strain 55) was 166.5, the τ ([3]; S. aureus strain 55) was 0.00178 L/mg/h and the C50K ([3]; S. aureus strain 60) was 1.05 mg/L. The H ([3]; S. aureus strain 60) was 1.52, the β ([3]; S. aureus strain 60) was 427.9 and the τ ([3]; S. aureus strain 60) was 0.00277 L/mg/h. It also gave a C50K ([3]; S. aureus strain 62) of 0.65 mg/L, an H ([3]; S. aureus strain 62) of 1.61 and a β ([3]; S. aureus strain 62) of 336.2. The τ ([3]; S. aureus strain 62) was 0.00715 L/mg/h, the C50K ([3]; S. aureus strain ATCC 29213) was 5.14 mg/L and the H ([3]; S. aureus strain ATCC 29213) was 0.75. For the same substance, the β ([3]; S. aureus strain ATCC 29213) was 14,620, the τ ([3]; S. aureus strain ATCC 29213) was 0.00011 L/mg/h and the “concentrations beyond which the rate of killing seemed to plateau” value ([3]; all five S. aureus isolates) was 4 to 8 times the MIC. For the same substance, the bactericidal activity ([3]; gentamicin concentration increased from 0.5 to 4 times the MIC) was “concentration dependent”, the “microbiologic response with repeated dosing” value ([4]; 3-times-daily dosing regimen) was “sustained bacterial suppression over 5 days” and the “killing at 24 h” value ([4]; both dosing regimens (once daily and 3 times daily, identical daily doses)) was “approximately 5 log”. For the same substance, the “microbiologic response with repeated dosing” value ([4]; once-daily dosing regimen, over the next 4 days) was “regrowth was apparent”, the C50k [5] was 0.72 mg/L and the H [5] was 3.73. It also gave a Kk [5] of 4.68 h⁻¹, a β [5] of 42.54 and a τ [5] of 0.0135 L/mg/h. The microbial response [6] was “Sustained suppression of resistance emergence was achieved”, the cross-resistance [7] was “observed” and the stability of resistance [8] was “not stable”.
